Source: patent publication US20020026053A1, “Novel 3-(substituted) -2- indolinones compounds and use thereof as inhibitors of protein kinase activity” (priority 1997, published 2002)

Assays:
[1] = molecular target: T1, EGFR (Homo sapiens, UniProt P00533); assay: Biochemical EGFR Assay; set-up: concentration or dose not given beside the values
T1 construct: endogenous in cells; host or cells: A431 cells (lysate, captured with SUMO1 anti-EGFR antibody)
Summary of the method: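 Readout is ABTS absorbance at 410 nm after anti-phosphotyrosine and HRP-antibody detection of EGFR autophosphorylation. The kinase was immunocaptured from A431 lysate, exposed 30 min to test compound diluted 1:10 in TBS, then phosphorylated for 5 min with ATP/MnCl2 before an EDTA stop.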

[2] = test system: PDGF-R; assay: PDGF-R Assay (cellular ELISA, U1242 cells); format: cell-based; set-up: concentration or dose not given beside the values
Summary of the method: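 Cellular ELISA for receptor autophosphorylation: after 2 hr test-compound treatment of serum-free U1242 cells at 37°C, ligand is added for 5–10 min, cells are lysed (HNTG) and receptor captured by specific antibody. Anti-phosphotyrosine plus secondary antibody with ABTS colour read at 410/630 nm, compared with compound-free control cells.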

T1 sequence (P00533 25-1210): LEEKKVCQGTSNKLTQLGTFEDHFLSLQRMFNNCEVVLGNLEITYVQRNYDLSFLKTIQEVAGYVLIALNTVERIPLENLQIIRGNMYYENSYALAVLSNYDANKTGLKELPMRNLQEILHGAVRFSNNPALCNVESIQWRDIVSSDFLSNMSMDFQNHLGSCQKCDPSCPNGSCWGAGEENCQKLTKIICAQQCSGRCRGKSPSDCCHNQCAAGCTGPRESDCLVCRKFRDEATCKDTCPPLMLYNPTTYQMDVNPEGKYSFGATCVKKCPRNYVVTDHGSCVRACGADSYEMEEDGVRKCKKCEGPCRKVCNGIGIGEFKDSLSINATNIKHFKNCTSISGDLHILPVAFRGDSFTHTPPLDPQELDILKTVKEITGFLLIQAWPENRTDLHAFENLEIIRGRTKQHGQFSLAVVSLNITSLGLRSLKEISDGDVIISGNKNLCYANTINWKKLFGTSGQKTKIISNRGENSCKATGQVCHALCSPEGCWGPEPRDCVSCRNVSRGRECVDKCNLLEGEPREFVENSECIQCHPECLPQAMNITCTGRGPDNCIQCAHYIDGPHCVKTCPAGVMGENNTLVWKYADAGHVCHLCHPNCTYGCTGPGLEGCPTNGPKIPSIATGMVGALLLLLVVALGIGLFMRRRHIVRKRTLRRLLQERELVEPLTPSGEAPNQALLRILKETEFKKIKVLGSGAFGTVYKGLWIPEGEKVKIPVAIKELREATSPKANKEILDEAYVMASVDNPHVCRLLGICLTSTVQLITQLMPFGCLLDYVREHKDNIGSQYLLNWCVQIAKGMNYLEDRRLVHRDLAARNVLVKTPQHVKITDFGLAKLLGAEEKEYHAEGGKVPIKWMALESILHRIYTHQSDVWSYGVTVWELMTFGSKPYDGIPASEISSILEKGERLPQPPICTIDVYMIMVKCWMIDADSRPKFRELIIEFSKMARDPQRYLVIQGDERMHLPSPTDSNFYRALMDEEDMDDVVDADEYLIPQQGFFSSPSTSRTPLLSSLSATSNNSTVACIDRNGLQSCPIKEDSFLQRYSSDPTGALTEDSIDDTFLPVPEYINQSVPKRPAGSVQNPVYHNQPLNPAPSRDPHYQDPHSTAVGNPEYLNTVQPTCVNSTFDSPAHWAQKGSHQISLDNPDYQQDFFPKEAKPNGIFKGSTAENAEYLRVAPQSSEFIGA

Structure (SMILES) | Biochem EGFR % Inhibition (P.167) [1] | PDGF Kinase % Inhibition (P.119) [2]
CCOc1ccccc1C=C1C(=O)Nc2c(Br)cc(Br)c(C)c21 [10717/H02] | 3.5% | –
Cc1c(Br)cc(Br)c2c1C(=Cc1cccs1)C(=O)N2 [10717/H03] | 25.7% | –
Cc1c(Br)cc(Br)c2c1C(=Cc1cccn1C)C(=O)N2 [10717/H04] | 6.8% | –
COc1ccc(C=C2C(=O)Nc3c(Br)cc(Br)c(C)c32)cc1OC [10720/H04] | −49.6% | –
Cc1c(Br)cc(Br)c2c1C(=Cc1ccccc1O)C(=O)N2 [10720/H05] | −29.0% | –
Cc1c(Br)cc(Br)c2c1C(=Cc1ccccc1)C(=O)N2 [10720/H06] | −52.4% | –
CSc1ccc(C=C2C(=O)Nc3c(Br)cc(Br)c(C)c32)s1 [10720/H07] | −49.8% | –
Cc1cc(O)cc(O)c1C=C1C(=O)Nc2c(Br)cc(Br)c(C)c21 [10720/H08] | −55.8% | –
CCOc1cc(C=C2C(=O)Nc3c(Br)cc(Br)c(C)c32)ccc1O [10720/H09] | −66.8% | –
COc1ccc(O)c(C=C2C(=O)Nc3c(Br)cc(Br)c(C)c32)c1 [10720/H10] | −62.8% | –
Cc1c(Br)cc(Br)c2c1C(=Cc1ncc[nH]1)C(=O)N2 [10720/H11] | −19.3% | –
Cc1c(Br)cc(Br)c2c1C(=Cc1nc3ccccc3n1C)C(=O)N2 [10721/H02] | 20.1% | –
Cc1c(Br)cc(Br)c2c1C(=Cc1nn(C)cc1Cl)C(=O)N2 [10721/H03] | 29.2% | –
Cc1cc(C=C2C(=O)Nc3c(Br)cc(Br)c(C)c32)sc1C [10721/H04] | −8.5% | –
Cc1c(Br)cc(Br)c2c1C(=Cc1cc3c([nH]1)CCCC3)C(=O)N2 [10721/H05] | −12.4% | –
Cc1c(Br)cc(Br)c2c1C(=Cc1cc([N+](=O)[O-])cc(CCl)c1O)C(=O)N2 [10721/H06] | 43.3% | –
Cc1c(Br)cc(Br)c2c1C(=Cc1ccc(Cl)s1)C(=O)N2 [10721/H07] | −20.5% | –
Cc1cc(C)c(C=C2C(=O)Nc3c(Br)cc(Br)c(C)c32)[nH]1 [10721/H08] | −6.8% | –
Cc1c(Br)cc(Br)c2c1C(=Cc1ccc(O)c(C(C)(C)C)c1)C(=O)N2 [10721/H09] | −10.4% | –
Cc1c(Br)cc(Br)c2c1C(=Cc1cc(Br)c(O)c(C(C)(C)C)c1)C(=O)N2 [10721/H10] | −3.9% | –
Cc1c(Br)cc(Br)c2c1C(=Cc1cc(C(C)(C)C)c(O)c(C(C)(C)C)c1)C(=O)N2 [10721/H11] | −21.3% | –
Cc1c(Br)cc(Br)c2c1C(=Cc1cc([N+](=O)[O-])c(O)c(C(C)(C)C)c1)C(=O)N2 [10722/H02] | 24.8% | 19.2%
Cc1c(Br)cc(Br)c2c1C(=Cc1c(O)cc(O)cc1O)C(=O)N2 [10722/H03] | 27.8% | 26.6%
Cc1c(Br)cc(Br)c2c1C(=Cc1ccc([N+](=O)[O-])s1)C(=O)N2 [10722/H04] | 8.6% | −26.1%

Structure (SMILES) | Biochem EGFR % Inhibition (P.167) [1] | PDGF Kinase % Inhibition (P.119) [2]
Cc1c(Br)cc(Br)c2c1C(=Cc1ccc(C(=O)O)cc1)C(=O)N2 [10722/H05] | 1.1% | 0.9%
Cc1c(Br)cc(Br)c2c1C(=Cc1ccc(F)cc1F)C(=O)N2 [10722/H06] | −2.0% | 18.6%
Cc1cc(C=C2C(=O)Nc3c(Br)cc(Br)c(C)c32)cc(C)c1O [10722/H07] | −24.8% | −16.9%
Cc1c(Br)cc(Br)c2c1C(=Cc1cc(Cl)c(O)c(C(C)(C)C)c1)C(=O)N2 [10722/H08] | −5.7% | −15.2%
Cc1c(Br)cc(Br)c2c1C(=Cc1csc([N+](=O)[O-])c1)C(=O)N2 [10722/H09] | −7.4% | 17.5%
CCCCN(CCCC)c1ccc(C=C2C(=O)Nc3c(Br)cc(Br)c(C)c32)cc1 [10722/H10] | −11.2% | 7.2%
Cc1c(Br)cc(Br)c2c1C(=Cc1ccc(C(F)(F)F)cc1)C(=O)N2 [10722/H11] | −16.3% | 15.7%
Cc1c(Br)cc(Br)c2c1C(=Cc1ccc(O)c(O)c1O)C(=O)N2 [10723/H02] | 72.8% | 20.7%
COc1cccc(C=C2C(=O)Nc3c(Br)cc(Br)c(C)c32)c1O [10723/H03] | 6.3% | −30.6%
Cc1c(Br)cc(Br)c2c1C(=Cc1cc(O)c(O)c(Br)c1)C(=O)N2 [10723/H04] | 7.1% | 53.3%
CC(=O)Oc1ccc(C=C2C(=O)Nc3c(Br)cc(Br)c(C)c32)cc1OC(C)=O [10723/H05] | −17.3% | −12.6%
Cc1cc(C=C2C(=O)Nc3c(Br)cc(Br)c(C)c32)ccc1O [10723/H06] | −11.8% | −17.4%
Cc1c(Br)cc(Br)c2c1C(=Cc1ccccc1Br)C(=O)N2 [10723/H07] | −11.3% | −20.9%
Cc1c(Br)cc(Br)c2c1C(=Cc1ccc(O)cc1O)C(=O)N2 [10723/H08] | 69.9% | 4.1%
COc1ccc(C=C2C(=O)Nc3c(Br)cc(Br)c(C)c32)c(O)c1 [10723/H09] | −2.6% | 15.9%
Cc1c(Br)cc(Br)c2c1C(=Cc1cccc(Br)c1)C(=O)N2 [10723/H10] | −38.1% | −22.3%
Cc1c(Br)cc(Br)c2c1C(=Cc1cc(C(C)(C)C)cc(C(C)(C)C)c1O)C(=O)N2 [10723/H11] | −20.7% | 29.7%
Cc1c(Br)cc(Br)c2c1C(=Cc1ccc(N(C)C)c3ccccc13)C(=O)N2 [10724/H02] | 17.6% | 2.2%
Cc1c(Br)cc(Br)c2c1C(=Cc1ccc(O)c([N+](=O)[O-])c1)C(=O)N2 [10724/H03] | 0.3% | −7.6%
Cc1c(Br)cc(Br)c2c1C(=Cc1ccc([N+](=O)[O-])c(O)c1)C(=O)N2 [10724/H04] | 14.0% | −13.1%
Cc1c(Br)cc(Br)c2c1C(=Cc1cc3c4c(c1O)CCCN4CCC3)C(=O)N2 [10724/H05] | −1.3% | −19.4%
Cc1c(Br)cc(Br)c2c1C(=Cc1cc(C(C)C)c(O)c(C(C)C)c1)C(=O)N2 [10724/H06] | −8.2% | −20.8%
Cc1c(Br)cc(Br)c2c1C(=Cc1cc3ccccc3o1)C(=O)N2 [10724/H07] | −19.3% | −39.6%
COc1cc(O)c(C=C2C(=O)Nc3c(Br)cc(Br)c(C)c32)c(OC)c1 [10724/H08] | −19.7% | −9.0%
